Measured values taken from the METLIN SMRT retention time set (Domingo-Almenara et al. 2019).

Assay: gradient 5% acetonitrile 3 min, to 50% in 2 min, to 85% in 15 min, held 3 min, 100 µL/min
Details: column: Zorbax Extend-C18 2.1 x 50 mm; eluents: water / acetonitrile, 0.1% formic acid
Procedure, shortened: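 Retention times of pure standards were taken from adduct peaks that were selected by computer and manually inspected. Over 3 months, mixtures of ~100 molecules were run by HPLC–quadrupole time-of-flight mass spectrometry in positive and negative ionization mode. The Zorbax Extend-C18 column (2.1 × 50 mm, 1.8 μm) ran at 100 μL/min in water and acetonitrile, each containing 0.1% formic acid, with 40 μL dead volume and 900 μL dwell volume.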

| Structure (SMILES) | RP-LC retention time |
| --- | --- |
| N#CCCc1ccc2c(c1)-c1[nH]c3ccc([N+](=O)[O-])cc3c1CC(=O)N2 | 778 s |
| Cc1ccc(S(=O)(=O)N2CCC(c3noc(-c4cccc(F)c4)n3)CC2)cc1 | 1160 s |
| Cc1ccccc1CNC(=O)C1CCCN(C(=O)c2[nH]c(C)c(C(=O)OC(C)C)c2C)C1 (stereo not drawn) | 896 s |
| CCc1cccc(C)c1NC(=O)Cn1nc(N2CCOCC2)c2ccccc2c1=O | 809 s |
| Cc1cc(NC(=O)NCCCSc2nc3ccccc3s2)no1 | 805 s |
| Cn1c(=O)n(Cc2ccc(Br)cc2F)c(=O)c2cnc(-c3cccnc3)nc21 | 968 s |
| CCc1ccc(C2=C(C)C(N3CCCN(C(=O)Cn4ccnc4)CC3)=NS2(=O)=O)cc1 | 642 s |
| O=C(Nc1ccc2c(c1)CCCN2C(=O)C1CC1)c1nc2ccccc2s1 | 968 s |
| CCn1c(=O)n(Cc2ccccn2)c(=O)c2cnc(-c3ccc(OC)cc3)nc21 | 880 s |
| CC(C)NC(=O)C1(c2ccc(NS(C)(=O)=O)cc2)CCCCC1 | 782 s |
| CCN(CC)C(=O)N[C@H]1C[C@@H]2c3cccc4[nH]cc(c34)C[C@H]2N(C)C1 | 679 s |
| CCc1onc(C)c1C1CCCN1C(=O)CCc1ccc(OC)cc1 (stereo not drawn) | 839 s |
| Clc1cc(N2CCSCC2)ncn1 | 763 s |
| Cc1cc(C)cc(NC(=O)N2CC(n3cnnc3-c3ccccc3)C2)c1 | 722 s |
| Cc1cc(C(F)F)n2nc(C(=O)N3CCCC3c3ccc(F)cc3)nc2n1 (stereo not drawn) | 808 s |
| Cc1ccc(OCC(=O)NCc2ccc(F)cc2)nn1 | 607 s |
| COCc1cc(=O)n(CC(=O)Nc2cc(C)ccc2C)c(N)n1 | 631 s |
| Cc1c(Cl)cccc1NC(=O)C1CCN(c2nc(C3CCC3)nc3csc(C)c23)CC1 | 1000 s |
| Cc1ccc2nc(-c3cccc(Cl)c3)c(Nc3ccc4c(c3)OCO4)n2c1 | 746 s |
| CCc1noc(-c2ccnc(-n3ncc(C(=O)NC4CCCCC4)c3C)c2)n1 | 1020 s |
| CCC(C)NC(=O)Cn1c(=O)cc(-c2nc(C)no2)c2ccccc21 (stereo not drawn) | 755 s |
| CC(C)CN1C(=O)CCc2cc(NS(=O)(=O)c3ccccc3F)ccc21 | 845 s |
| CCN1CCn2cc(S(=O)(=O)Nc3ccc(C)cc3C)cc2C1=O | 746 s |

| Structure (SMILES) | RP-LC retention time |
| --- | --- |
| CCOc1ccc(CC(=O)OCn2nnc3ccccc3c2=O)cc1 | 914 s |
| COc1cc(Cl)c(NC(=O)Cn2cc(-c3nnc(C)o3)c3ccccc32)c(OC)c1 | 836 s |
| Fc1cccc(-c2nc(-c3cn(Cc4ccccc4)nn3)no2)c1 | 1020 s |
| Cc1c(N2C(=O)[C@@H]3[C@H](O)CCN3C2=O)ccc(C#N)c1Cl | 765 s |
| c1cc(-c2noc(C3CC3)n2)ccc1OC1CNC1 | 616 s |
| COC(=O)c1ncn2c1C(=O)N(c1ccc(F)cc1)C(C)(C(=O)NCc1ccccc1)C2 (stereo not drawn) | 691 s |
| O=C(NCc1ccccc1)N1CC(Oc2ccc(-c3nc(-c4ccccc4)no3)cc2)C1 | 1130 s |
| CCNC(=O)c1nnn(-c2cccc(Cl)c2)c1-c1cccnc1 | 740 s |
| O=S(=O)(Nc1cccn2ncnc12)c1ccc(F)cc1 | 694 s |
| CN1C(=O)C(CC(=O)N2CCCCCC2)Sc2ncccc21 (stereo not drawn) | 705 s |
| CC(C)n1c(=O)sc2cc(S(=O)(=O)N3CCC(C(=O)N4CCCCC4)CC3)ccc21 | 900 s |
| COc1cccc(-c2noc(Cc3nnc(-c4ccc(C)c(C)c4)o3)n2)c1OC | 1060 s |
| Cc1cccn2c(=O)cc(CN(C)Cc3ccccc3)nc12 | 603 s |
| Cc1ccc(NC(=O)C2CCN(C(=O)c3ncn4c3COC(c3ccc(F)cc3)C4)CC2)c(Cl)c1 (stereo not drawn) | 842 s |
| CN1CCN(c2nc3cc(C(F)(F)F)ccc3n3cccc23)CC1 | 768 s |
| CCOC(=O)C1=C(CN2CCN(C(C)CC)CC2)NC(=O)NC1c1ccc(Cl)cc1 (stereo not drawn) | 663 s |
| Cc1noc(C)c1CC(=O)N1CC(c2nc(-c3cccs3)no2)C1 | 690 s |
| CC(C)Cn1c(=O)c2cc(C(=O)NCc3cc(F)ccc3F)nn2c2ccccc21 | 1030 s |
| CCCC(CCC)C(=O)NCCc1c[nH]c2ccc(C)cc12 | 996 s |
| O=C(NCCc1csc(-c2ccccc2)n1)C1CCN(S(=O)(=O)c2ccccc2)CC1 | 881 s |
| Cc1cccc(Sc2nccnc2N2CCC(C(=O)N3CCOCC3)CC2)c1 | 900 s |
| CC(Cc1ccco1)NC(=O)c1ccc2nc(Cc3ccccc3)oc2c1 (stereo not drawn) | 947 s |
| Cc1cccc(CNC(=O)CN2C(=O)C3CCCCN3c3ccc(S(=O)(=O)N(C)C)cc32)c1 (stereo not drawn) | 932 s |

| Structure (SMILES) | RP-LC retention time |
| --- | --- |
| CCCN(C)c1nccn2c(=O)n(CC(=O)Nc3ccc(Cl)cc3F)nc12 | 735 s |
| COc1ccc(C2Cn3nnc(-c4nc(C)no4)c3CO2)cc1 (stereo not drawn) | 833 s |
| O=C(Nc1cnc(N2CCOCC2)nc1)c1ccc(F)cc1Cl | 743 s |
| Cc1cc(C(F)(F)F)nn1CC(=O)N1CCc2nn(CC3CC3)c(=O)n2CC1 | 712 s |
| Cc1ccc(-c2cc(-c3cc(-c4ccc(C)cc4C)n[nH]3)[nH]n2)c(C)c1 | 1070 s |
| Cc1ccc(CCNC(=O)C2CCCN(S(=O)(=O)c3cc(-c4noc(C)n4)cs3)C2)cc1 (stereo not drawn) | 1060 s |
| CCC(C)C(NC(=O)c1cccs1)C(=O)Nc1nc2ccccc2[nH]1 (stereo not drawn) | 692 s |
| COc1cc([C@@H]2c3cc4c(cc3[C@H](O)[C@@H](CO)[C@@H]2C(=O)NC(C)C)OCO4)cc(OC)c1OC | 660 s |
| O=C(Nc1ccc(N2CCN(C3CCCCC3)C2=O)nc1)c1ccccc1 | 630 s |
| Cc1c(C(=O)N(C)C)cnn1-c1cc(-c2nc(C(C)(C)C)no2)ccn1 | 922 s |
| Cc1c(-c2ccnc(N3CCOCC3)n2)cnc2nc(-c3ccc(Cl)cc3)nn12 | 1030 s |
| O=C(NCCn1c(CCc2ccccc2)nc2cccnc21)c1cccs1 | 687 s |
| c1ccc(-c2ccc(-c3nccc4ccccc34)[nH]2)cc1 | 806 s |
| CCc1cc(C(=O)Nc2ccc(C)c(C)c2)nc2ccnn12 | 1150 s |
| CCn1c(SCC(=O)N2CCCCC2)nnc1-c1ccc2c(c1)OCCCO2 | 734 s |
| COc1ccc(N2CCN(CCCNC(=O)C3CCCN(c4nccc(C)n4)C3)CC2)cc1 (stereo not drawn) | 603 s |
| O=c1c(NCc2ccccn2)nc2ccncc2n1Cc1ccccc1 | 578 s |
| CCCCNC(=O)C1CCN(Cc2cn(C)c3ccc(Cl)cc23)CC1 | 667 s |
| CC1CCN(c2ncc3c(n2)CCN(Cc2ccc(N(C)C)cc2)C3)CC1 | 757 s |
| CC(C)NC(=O)c1nn(-c2ccccc2F)nc1CO | 768 s |
| Cc1ccc(-c2cc3c(=O)n(CC(O)c4ccccc4)ccn3n2)c(C)c1 (stereo not drawn) | 982 s |
| CSc1ccc(CNC(=O)c2nnn3c2COC(c2ccc(F)cc2)C3)cc1 (stereo not drawn) | 980 s |
